The results in this text go back to PubChem BioAssay (NCI).

Common to all, as to assay: DTP human tumour cell line panel, 48 h
The test system of test [1] is ACHN renal.
The test system of test [2] is A549 NSCLC.
Test [3] relates to MOLT-4 leukemia.
For test [4], the system named is SW-620 colon.
The subject of test [5] is UACC-257 melanoma.
The subject of test [6] is NCI-H460 lung.
In test [7] the test system is CAKI-1 renal.
Test [8] relates to M14 melanoma.
Test [9] concerns SN12C renal.
The test system of test [10] is MDA-N.

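Cells were grown in 96-well plates and exposed to each compound for 48 hours at five concentrations; endpoints were interpolated linearly between bracketing concentrations, or set to the highest concentration if not reached. TGI: total growth inhibition.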 Where only a bound is given, the exact number is not on record here.

For orientation: TGI means the concentration at which net growth stops. A low value points to more potent growth arrest.

On to `CC1CCN(C(C)C)P(=S)(Cc2ccccc2)O1` (configuration not stated), for which the concentration for total growth inhibition (TGI) in test [1], in test [2], in [3], in test [4], in test [5] and in [6] was above 100 µM in each case. In addition, the TGI in [7] and in test [8] was above 100 µM each time.
Take `CCCCCCN(CCCCCC)CCC(=O)c1ccc2cc(Br)c3ccccc3c2c1`: the TGI in test [1], in test [2], in [4], in [5], in test [6] and in test [7] was above 100 µM throughout. For the same molecule, the TGI in test [8] and in [9] was above 100 µM in each case.
As for `COc1ccc(/C=C2\N=C(N3CCCC(CO)C3)NC2=O)cc1` (configuration not stated), the TGI in test [10], in test [1], in [2], in [3], in test [4] and in [5] was above 100 µM throughout. Also, the TGI in test [7], in test [8] and in test [9] was above 100 µM in each case.
Take `COc1ccc(C2SCC(=O)N2c2ccc(-n3c(-c4ccccc4)nc4ccccc4c3=O)cc2)cc1` (configuration not stated): the TGI in test [1], in test [2], in test [3], in [4], in test [5] and in test [6] was above 100 µM each time. For the same molecule, the TGI in test [7], in [8] and in test [9] was above 100 µM throughout.
On to `CN1CCC2(CC1)SSC1(CCN(C)CC1)S2`, for which the TGI in [10], in test [1], in test [2], in test [3], in [4] and in test [5] was above 100 µM each time. In addition, the TGI in test [6], in test [8] and in test [9] was above 100 µM in each case.
Consider `COC(=O)C1=CO[C@@H](C)[C@@H]2Cn3ccc4c5ccccc5nc-4c3C[C@H]12`, for which the TGI in [1], in test [2], in test [3], in test [4], in test [5] and in [6] was above 100 µM in each case. In addition, the TGI in [8] and in [9] was above 100 µM each time.
In the case of `O=S1(=O)c2ccccc2N(O)C2=NCCN21`, the TGI in test [1], in test [2], in [3], in test [4], in test [5] and in [6] was above 100 µM in each case. The total growth inhibition concentration (TGI) in [7], in test [8] and in test [9] was above 100 µM each time.
`CC(C)(C)C1=CC(=N/N=c2\scc(-c3ccccc3)n2-c2ccccc2)C=C(C(C)(C)C)C1=O`: the TGI in test [1], in test [2], in [3], in [4], in test [5] and in test [6] was above 100 µM throughout. The TGI in test [7], in [8] and in [9] was above 100 µM each time.
In the case of `COC(=O)C(Cc1c[nH]c2ccccc12)NC(=O)C(Cc1cnc[nH]1)NC(=O)C1CCC(=O)N1C(=O)OCc1ccccc1` (configuration not stated), the total growth inhibition concentration (TGI) in test [10], in test [1], in test [2], in test [3], in test [4] and in test [5] was above 100 µM throughout. In addition, the TGI in [6] and in [8] was above 100 µM throughout.
Take `Cc1nc2c(c(N3CCN(C)CC3)n1)Cc1ccccc1-2`: the TGI in test [10] was above 100 µM; in test [1], above 100 µM; in [2], above 100 µM; in test [4] it was above 100 µM; in test [5], above 100 µM; in test [6], 47.4 µM. The total growth inhibition concentration (TGI) in test [7] is 49.4 µM; in [8], above 100 µM.
`COc1ccc2[nH]cc(CCNC(=O)[C@H](Cc3ccc(O)cc3)NC(=O)[C@@H](NCC(F)(F)F)C(C)C)c2c1`: the TGI in test [10], in test [1], in test [2], in test [3], in [4] and in [5] was above 100 µM throughout. Besides, the concentration for total growth inhibition (TGI) in test [6], in test [8] and in [9] was above 100 µM each time.
Take `O=C1CCCCCCC2=C1C(Sc1ccccc1)CC2` (configuration not stated): the TGI in test [1], in [2], in [3], in test [4], in test [5] and in test [6] was above 100 µM in each case. In addition, the concentration for total growth inhibition (TGI) is above 100 µM in [8] and 42.3 µM in test [9].
As to `COC(=O)CCc1ccc(CCC(=O)OC)cc1`, the TGI in [10], in test [1], in test [2], in test [3], in [4] and in [5] was above 100 µM throughout. Moreover, the TGI in [6], in [7] and in [8] was above 100 µM throughout.
As for `CCOC(=O)C1(C(=O)OCC)C(C(C)(C)C)=C(C)c2ccccc21`, the TGI in test [1] was 28 µM; in test [2] it was above 100 µM; in test [3], above 100 µM; in [4] it was 28.8 µM; in test [5] it was 44.3 µM; in [6] it was 26.3 µM. Also, the results for the TGI in test [8] and in test [9] were 39.5 µM and 28.7 µM, respectively.
On to `C=CCC1(C(=O)OC)CCC/C(=N\O)C1` (configuration not stated), for which the TGI in test [10], in test [1], in test [2], in [3], in test [4] and in test [5] was above 10 µM throughout. The TGI in test [7], in test [8] and in test [9] was above 10 µM throughout.
On to `O=C(O)/C=C/c1ccc(Oc2ccccc2C(=O)O)o1`, for which the TGI in test [10], in [1], in test [2], in test [3], in [4] and in test [5] was above 10 µM throughout. Besides, the TGI in test [7], in [8] and in test [9] was above 10 µM in each case.
